Laboratory results: patent publication US20120329731A1 (priority 2006, published 2012)
Where two headings read alike, the source gives them in different places.

Experiments:
cyanide poisoning = system: cyanide poisoning; set-up: species or system mice; details: mouse, in vivo
righting reflex = details: mouse, in vivo, ip

Row | Compound | % S (percent survivors) (cyanide poisoning) | P.I. (protective index: recovery time CN-treated / recovery time PD-treated) (cyanide poisoning) | Protective Indices compared with the combination of nitrite and thiosulfate (cyanide poisoning; ip) | % S (percent survivors) (cyanide poisoning; po) | antidotal activity when administered by the oral route (cyanide poisoning; po) | Screen Righting time (Ave ± SE) (righting reflex) | P.I. (protective index) (cyanide poisoning) | Screen Righting time (Ave ± SE) (cyanide poisoning)
1 | CCOC(=O)C1(O)CSC(O)(C(=O)OCC)CS1 (stereo not shown) [PD 2, 2,5-Dihydroxy-2,5-dicarbethoxy-1,4-dithiane] | 100% | 7.6 | generally superior | 100% | retain their antidotal activity | 21.2 ± 1.2 s | – | –
2 | O.O.O.O.O=C(O)C1(O)CSC(O)(C(=O)O)CS1.[Na].[Na] (stereo not shown) [13 (X = Na), Disodium 2,5-dihydroxy-1,4-dithiane-2,5-dicarboxylic acid tetrahydrate] | 100% | – | – | 100% | – | 14.0 ± 2.3 s | 4.0 | 17.0 ± 3.3 min
3 | C/C1=C2/[N-][C@H]([C@H](CC(N)=O)[C@@]2(C)CCC(=O)NC[C@@H](C)OP(=O)([O-])O[C@H]2[C@@H](O)[C@@H](n3cnc4cc(C)c(C)cc43)O[C@@H]2CO)[C@]2(C)N=C(/C(C)=C3N=C(/C=C4N=C1[C@@H](CCC(N)=O)C\4(C)C)[C@@H](CCC(N)=O)[C@]\3(C)CC(N)=O)[C@@H](CCC(N)=O)[C@]2(C)CC(N)=O.[Co+3].[OH-] [H, Hydroxocobalamin, reference compound] | 100% | 5.2 | – | – | – | 7.1 ± 0.6 s | – | –
4 | N[C@@H](CCC(=O)N[C@@H](CSSC[C@H](N)C(=O)O)C(=O)NCC(=O)O)C(=O)O [CySSG, reference compound] | 100% | – | – | 100% | – | 8.8 ± 2.2 s | 2.5 | 27.7 ± 2.7 min
